Assay results as given in patent publication US20250092065A1, “2-(INDAZOL-5-YL)-6-(PIPERIDIN-4-YL)-1,7-NAPHTHYRIDINE DERIVATIVES AND RELATED COMPOUNDS AS MODULATORS FOR SPLICING NUCLEIC ACIDS AND FOR THE TREATMENT OF PROLIFERATIVE DISEASES” (REMIX THERAPEUTICS INC., priority 2022, published 2025).
pIC50: −log10 of the molar value. Where two headings read alike, the source gives them in different places.

What was measured:
[1] = test system: SMN2 mRNA; experiment: RT-qPCR splicing assay, SMN2 mRNA; assay type: cell-based, human; conditions: canonical junction qPCR panel, Table 4, read-out: SMN2 IC50 (decrease in CJ mRNA levels)
Outline: (§1)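 Junction-specific RT-qPCR read-out: CJ and AJ isoform levels, housekeeper-normalized (GAPDH/GUSB/PPIA), ΔΔCt vs DMSO, converted to RQ then % response. Cells: A673 (DMEM/10% FBS, adhered 24 h) or K562 (IMDM/10% FBS). Compound 11-pt 3-fold, top 10 uM, 24 h, 37 °C.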

[2] = test system: MYB mRNA; experiment: RT-qPCR splicing assay, MYB mRNA canonical (CJ) and alternative (AJ) junction; assay type: cell-based, human; conditions: for AC50: MYB alternative junction mRNA, read-out: MYB AJ (increase in AJ mRNA, AC50)
Outline: as §1

[3] = test system: MYB; experiment: HiBiT protein abundance assay, MYB (K562 HiBiT knock-in); assay type: cell-based, human; conditions: HiBiT knock-in K562 cells, 24 hours, top dose 10 μM
Outline: (§2)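 K562 HiBiT knock-in, 24 h, 37 °C, top 10 μM final, 3-fold ×10, DMSO ≤0.25%. Lytic HiBiT luminescence; PC = parental K562, NC = DMSO; 4PL IC50.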

[4] = test system: Target C; experiment: HiBiT protein abundance assay, Target C (K562 HiBiT knock-in); assay type: cell-based, human; conditions: HiBiT knock-in K562 cells, 24 hours, top dose 10 μM
Outline: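 K562 HiBiT knock-in cells (10000/well) were treated 24 h at 37° C with a 10-point 3-fold dilution series (top 10 μM final, ≤0.25% DMSO). HiBiT luminescence was read after lytic LgBiT detection. Percent response used unmodified K562 and DMSO-treated knock-in controls, and IC50 came from a four-parameter fit at 50% of untreated.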

[5] = test system: HTT; experiment: HiBiT protein abundance assay, HTT (K562 HiBiT knock-in); assay type: cell-based, human; conditions: HiBiT knock-in K562 cells, 24 hours, top dose 10 μM
Outline: as §2

[6] = test system: K562 cells; experiment: Cell Titer Glo 2.0 cell viability (toxicity) assay, K562; conditions: 500 cells/well, 72 hours
[7] = Homo sapiens, MYB canonical junction mRNA, RT-qPCR, read-out: MYB CJ (decrease in CJ mRNA levels, IC50)
[8] = Homo sapiens, canonical junction qPCR panel, Table 4, read-out: MYB IC50 (decrease in CJ mRNA levels)

SMILES	pIC50 ([1]; Homo sapiens)	AC50 ([2]; Homo sapiens, RT-qPCR)	pIC50 [2, 7]	pIC50 [2, 8]	pIC50 [3]	pIC50 [4]	pIC50 [5]	Effect of Exemplary Compounds on Cell Viability, K562 [6]	pIC50 [1]	AC50 ([2]; RT-qPCR)	pIC50 ([2]; MYB canonical junction mRNA, RT-qPCR, read-out: MYB CJ (decrease in CJ mRNA levels, IC50))	pIC50 ([2]; canonical junction qPCR panel, Table 4, read-out: MYB IC50 (decrease in CJ mRNA levels))
Cn1cc2cc(-c3ccc4nc(N5CCC(NC6CC6)C5)ccc4n3)c(O)c(F)c2n1 (racemic) [Compound 287, 5-{6-[3-(cyclopropylamino)pyrrolidin-1-yl]-1,5-naphthyridin-2-yl}-7-fluoro-2-methylindazol-6-ol; trifluoroacetic acid]	> 7.00	< 100 nM	> 7.00	> 7.00	> 7.00	> 7.00	> 7.00	A (A represents <100 nM)	–	–	–	–
CC(C)N[C@@H]1CCN(c2ccc3nc(-c4cc5cn(C)nc5c(F)c4O)ccc3n2)C1 (single isomer, unassigned) [Compound 285]	> 7.00	< 100 nM	> 7.00	> 7.00	> 7.00	> 7.00	> 7.00	A (A represents <100 nM)	–	–	–	–
CC(C)N[C@H]1CCN(c2ccc3nc(-c4cc5cn(C)nc5c(F)c4O)ccc3n2)C1 (single isomer, unassigned) [Compound 286]	> 7.00	< 100 nM	> 7.00	> 7.00	> 7.00	> 7.00	> 7.00	A (A represents <100 nM)	–	–	–	–
Cc1c(O)c(-c2ccc3nc(N4CC[C@@H](NC5CCC5)C4)ccc3n2)cc2cn(C)nc12 (single isomer, unassigned) [Compound 289]	> 7.00	< 100 nM	> 7.00	> 7.00	> 7.00	> 7.00	> 7.00	A (A represents <100 nM)	–	–	–	–
Cc1c(O)c(-c2ccc3nc(N4CC[C@H](NC5CCC5)C4)ccc3n2)cc2cn(C)nc12 (single isomer, unassigned) [Compound 290]	> 7.00	< 100 nM	> 7.00	> 7.00	> 7.00	> 7.00	> 7.00	A (A represents <100 nM)	–	–	–	–
Cc1nc2cc(O)c(-c3ccc4nc(N5CCC(NCC6CC6)C5)ccc4n3)cc2o1 (single isomer, unassigned) [Compound 291, 6-(6-{3-[(cyclopropylmethyl)amino]pyrrolidin-1-yl}-1,5-naphthyridin-2-yl)-2-methyl-1,3-benzoxazol-5-ol]	> 7.00	100 to 1000 nM	6.00 to 7.00	6.00 to 7.00	6.00 to 7.00	6.00 to 7.00	> 7.00	B (B represents 100-1000 nM)	–	–	–	–
Cc1nc2cc(O)c(-c3ccc4nc(N5CCC(NCC6CC6)C5)ccc4n3)cc2o1 (single isomer, unassigned) [Compound 292, 6-(6-{3-[(cyclopropylmethyl)amino]pyrrolidin-1-yl}-1,5-naphthyridin-2-yl)-2-methyl-1,3-benzoxazol-5-ol]	–	–	–	–	6.00 to 7.00	> 7.00	> 7.00	B (B represents 100-1000 nM)	> 7.00	100 to 1000 nM	> 7.00	> 7.00
Cc1nc2c(C)c(O)c(-c3ccc4nc(N5CC[C@@H](NCC6CC6)C5)ccc4n3)cc2o1 (single isomer, unassigned) [Compound 295]	> 7.00	< 100 nM	> 7.00	> 7.00	> 7.00	> 7.00	> 7.00	B (B represents 100-1000 nM)	–	–	–	–
Cc1nc2c(C)c(O)c(-c3ccc4nc(N5CC[C@H](NCC6CC6)C5)ccc4n3)cc2o1 (single isomer, unassigned) [Compound 296]	> 7.00	< 100 nM	6.00 to 7.00	6.00 to 7.00	> 7.00	> 7.00	> 7.00	B (B represents 100-1000 nM)	–	–	–	–
Cn1cc2cc(-c3ccc4nc(N5CC[C@@H](N[C@H]6C[C@@H](F)C6)C5)ccc4n3)c(O)cc2n1 (single isomer, unassigned) [Compound 300]	> 7.00	< 100 nM	> 7.00	> 7.00	> 7.00	> 7.00	> 7.00	B (B represents 100-1000 nM)	–	–	–	–
Cn1cc2cc(-c3ccc4nc(N5CC[C@@H](NCC6CC6)C5)ccc4n3)c(O)c(F)c2n1 (single isomer, unassigned) [Compound 303]	> 7.00	< 100 nM	> 7.00	> 7.00	> 7.00	> 7.00	> 7.00	A (A represents <100 nM)	–	–	–	–
Cn1cc2cc(-c3ccc4nc(N5CC[C@H](NCC6CC6)C5)ccc4n3)c(O)c(F)c2n1 (single isomer, unassigned) [Compound 304]	> 7.00	< 100 nM	> 7.00	> 7.00	> 7.00	> 7.00	> 7.00	A (A represents <100 nM)	–	–	–	–
Cn1cc2cc(-c3ccc4nc(N5CC[C@@H](NC6CC6)C5)ccc4n3)c(O)c(F)c2n1 (single isomer, unassigned) [Compound 305]	> 7.00	< 100 nM	> 7.00	> 7.00	> 7.00	> 7.00	> 7.00	A (A represents <100 nM)	–	–	–	–
Cn1cc2cc(-c3ccc4nc(N5CC[C@H](NC6CC6)C5)ccc4n3)c(O)c(F)c2n1 (single isomer, unassigned) [Compound 306]	> 7.00	< 100 nM	> 7.00	> 7.00	> 7.00	> 7.00	> 7.00	A (A represents <100 nM)	–	–	–	–
Cc1nc2c(F)c(O)c(-c3ccc4nc(N5CC[C@@H](NC6CCC6)C5)ccc4n3)cc2o1 (single isomer, unassigned) [Compound 307]	> 7.00	< 100 nM	> 7.00	> 7.00	> 7.00	> 7.00	> 7.00	A (A represents <100 nM)	–	–	–	–
Cc1nc2c(F)c(O)c(-c3ccc4nc(N5CC[C@H](NC6CCC6)C5)ccc4n3)cc2o1 (single isomer, unassigned) [Compound 308]	> 7.00	< 100 nM	> 7.00	> 7.00	> 7.00	> 7.00	> 7.00	A (A represents <100 nM)	–	–	–	–
Cc1nc2c(C)c(O)c(-c3ccc4nc(N5CC[C@@H](NC6(C)CC6)C5)ccc4n3)cc2o1 (single isomer, unassigned) [Compound 310]	> 7.00	< 100 nM	> 7.00	> 7.00	> 7.00	> 7.00	> 7.00	A (A represents <100 nM)	–	–	–	–
Cc1cn2nc(-c3ccc4nc(N5CCC(NC6CC6)C5)ccc4n3)c(O)c2c(C)n1 (centres unmarked) [Compound 252]	> 7.00	100 to 1000 nM	6.00 to 7.00	6.00 to 7.00	6.00 to 7.00	6.00 to 7.00	6.00 to 7.00	–	–	–	–	–
